Experimental data taken from PMC10574557, “The Inhibitory Effect of Magnolol on the Human TWIK1 Channel Is Related to G229 and T225 Sites” (Molecules, 2023).
Changes are numbered by the printed parent chain.

How the values were obtained:
Assay type in all cases: cell-based
TWIK1 (K2P1.1/KCNK1) [1] = molecular target: T1, TWIK1 (K2P1.1/KCNK1) (Homo sapiens, UniProt O00180, G229A); assay: whole-cell patch clamp, transiently transfected HEK293, Hill fit
T1 construct: full-length cDNA (OriGene) in pcDNA3.1(neo+), stably expressed in HEK293; mutants transiently transfected in HEK293 with CD8; homodimer
T1 sequence (O00180 1-336 G229A): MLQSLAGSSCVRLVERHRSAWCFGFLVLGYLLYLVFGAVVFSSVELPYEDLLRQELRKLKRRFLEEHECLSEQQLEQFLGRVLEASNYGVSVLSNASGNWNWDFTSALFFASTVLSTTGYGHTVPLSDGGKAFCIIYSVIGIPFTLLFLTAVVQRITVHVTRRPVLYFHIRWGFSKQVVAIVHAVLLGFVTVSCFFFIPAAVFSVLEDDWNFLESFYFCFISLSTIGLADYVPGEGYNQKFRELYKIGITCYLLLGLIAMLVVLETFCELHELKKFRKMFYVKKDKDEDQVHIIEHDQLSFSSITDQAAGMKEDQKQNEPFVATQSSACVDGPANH

TWIK1 (K2P1.1/KCNK1) [2] = molecular target: T2, TWIK1 (K2P1.1/KCNK1) (Homo sapiens, UniProt O00180); assay: whole-cell patch clamp, HEK293-TWIK1 stable line, Hill fit
T2 construct: full-length cDNA (OriGene) in pcDNA3.1(neo+), stably expressed in HEK293; mutants transiently transfected in HEK293 with CD8; homodimer
T2 sequence (O00180 1-336): T1 sequence (O00180 1-336 G229A) with A229G

TWIK1 (K2P1.1/KCNK1) [3] = molecular target: T3, TWIK1 (K2P1.1/KCNK1) (Homo sapiens, UniProt O00180, S224A); assay: whole-cell patch clamp, transiently transfected HEK293, Hill fit
T3 construct: full-length cDNA (OriGene) in pcDNA3.1(neo+), stably expressed in HEK293; mutants transiently transfected in HEK293 with CD8; homodimer
T3 sequence (O00180 1-336 S224A): T1 sequence (O00180 1-336 G229A) with S224A, A229G

TWIK1 (K2P1.1/KCNK1) [4] = molecular target: T4, TWIK1 (K2P1.1/KCNK1) (Homo sapiens, UniProt O00180, I140A); assay: as above
T4 construct: full-length cDNA (OriGene) in pcDNA3.1(neo+), stably expressed in HEK293; mutants transiently transfected in HEK293 with CD8; homodimer
T4 sequence (O00180 1-336 I140A): T1 sequence (O00180 1-336 G229A) with I140A, A229G

TWIK1 (K2P1.1/KCNK1) [5] = molecular target: T5, TWIK1 (K2P1.1/KCNK1) (Homo sapiens, UniProt O00180, L223A); assay: as above
T5 construct: full-length cDNA (OriGene) in pcDNA3.1(neo+), stably expressed in HEK293; mutants transiently transfected in HEK293 with CD8; homodimer
T5 sequence (O00180 1-336 L223A): T1 sequence (O00180 1-336 G229A) with L223A, A229G

TWIK1 (K2P1.1/KCNK1) [6] = molecular target: T6, TWIK1 (K2P1.1/KCNK1) (Homo sapiens, UniProt O00180, T225A); assay: as above
T6 construct: full-length cDNA (OriGene) in pcDNA3.1(neo+), stably expressed in HEK293; mutants transiently transfected in HEK293 with CD8; homodimer
T6 sequence (O00180 1-336 T225A): T1 sequence (O00180 1-336 G229A) with T225A, A229G

Q: How did the IC50 (TWIK1 (K2P1.1/KCNK1) [1]) turn out when `C=CCc1ccc(O)c(-c2cc(CC=C)ccc2O)c1` [magnolol] was run?
A: 20.8 ± 3.2 µM

Q: And the IC50 (TWIK1 (K2P1.1/KCNK1) [2])?
A: 6.21 ± 0.13 µM

Q: And the IC50 (TWIK1 (K2P1.1/KCNK1) [3])?
A: 7.43 ± 3.2 µM

Q: And the IC50 (TWIK1 (K2P1.1/KCNK1) [4])?
A: 10.2 ± 1.07 µM

Q: And the IC50 (TWIK1 (K2P1.1/KCNK1) [5])?
A: 9.55 ± 1.62 µM

Q: And the IC50 (TWIK1 (K2P1.1/KCNK1) [6])?
A: 21.8 ± 7.93 µM
